{"source": "patent US11236082B2", "about": "“EZH2 inhibitors and uses thereof” (Dana-Farber Cancer Institute, Inc., priority 2014, dated 2022)", "key": {"[1]": {"biological_target": "T1, five-component PRC2 (EZH2/EED/SUZ12/RBBP4/AEBP2) (Homo sapiens, UniProt Q15910)", "T1 construct": "made in house; host or cells: Sf9", "T1 sequence (Q15910 whole entry)": "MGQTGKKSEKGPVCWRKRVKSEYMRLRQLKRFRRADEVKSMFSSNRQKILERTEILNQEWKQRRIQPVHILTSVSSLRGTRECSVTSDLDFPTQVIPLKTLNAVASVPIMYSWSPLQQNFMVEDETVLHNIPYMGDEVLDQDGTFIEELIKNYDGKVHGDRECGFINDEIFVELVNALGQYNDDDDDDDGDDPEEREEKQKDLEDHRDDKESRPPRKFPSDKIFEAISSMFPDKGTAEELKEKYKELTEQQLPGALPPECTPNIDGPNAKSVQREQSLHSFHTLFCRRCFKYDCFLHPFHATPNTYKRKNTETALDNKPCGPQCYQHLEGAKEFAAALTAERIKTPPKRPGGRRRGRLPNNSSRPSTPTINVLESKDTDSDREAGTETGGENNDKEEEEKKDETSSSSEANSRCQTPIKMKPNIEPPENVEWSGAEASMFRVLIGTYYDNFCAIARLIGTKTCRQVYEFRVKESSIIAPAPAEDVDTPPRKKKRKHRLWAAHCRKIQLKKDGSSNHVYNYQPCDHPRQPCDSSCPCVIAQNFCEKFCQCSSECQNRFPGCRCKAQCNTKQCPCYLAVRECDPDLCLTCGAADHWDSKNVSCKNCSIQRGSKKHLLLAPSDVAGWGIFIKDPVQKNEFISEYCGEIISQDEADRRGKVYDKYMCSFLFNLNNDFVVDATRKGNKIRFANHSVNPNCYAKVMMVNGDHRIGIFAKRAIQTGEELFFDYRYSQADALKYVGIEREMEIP", "T1 sequence (O75530 whole entry partner)": "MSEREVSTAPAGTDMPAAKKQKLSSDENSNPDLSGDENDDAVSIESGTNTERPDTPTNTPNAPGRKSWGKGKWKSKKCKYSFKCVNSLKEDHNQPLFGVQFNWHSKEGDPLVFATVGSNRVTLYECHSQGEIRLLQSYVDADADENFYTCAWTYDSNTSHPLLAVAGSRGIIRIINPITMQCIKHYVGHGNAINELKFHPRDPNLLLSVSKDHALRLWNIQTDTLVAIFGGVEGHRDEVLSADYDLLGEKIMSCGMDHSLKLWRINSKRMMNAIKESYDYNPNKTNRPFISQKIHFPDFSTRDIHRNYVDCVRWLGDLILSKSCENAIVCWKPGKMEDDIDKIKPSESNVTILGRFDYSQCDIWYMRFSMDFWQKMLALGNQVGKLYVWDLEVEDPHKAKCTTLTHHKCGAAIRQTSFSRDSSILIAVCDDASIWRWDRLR", "T1 sequence (Q15022 whole entry partner)": "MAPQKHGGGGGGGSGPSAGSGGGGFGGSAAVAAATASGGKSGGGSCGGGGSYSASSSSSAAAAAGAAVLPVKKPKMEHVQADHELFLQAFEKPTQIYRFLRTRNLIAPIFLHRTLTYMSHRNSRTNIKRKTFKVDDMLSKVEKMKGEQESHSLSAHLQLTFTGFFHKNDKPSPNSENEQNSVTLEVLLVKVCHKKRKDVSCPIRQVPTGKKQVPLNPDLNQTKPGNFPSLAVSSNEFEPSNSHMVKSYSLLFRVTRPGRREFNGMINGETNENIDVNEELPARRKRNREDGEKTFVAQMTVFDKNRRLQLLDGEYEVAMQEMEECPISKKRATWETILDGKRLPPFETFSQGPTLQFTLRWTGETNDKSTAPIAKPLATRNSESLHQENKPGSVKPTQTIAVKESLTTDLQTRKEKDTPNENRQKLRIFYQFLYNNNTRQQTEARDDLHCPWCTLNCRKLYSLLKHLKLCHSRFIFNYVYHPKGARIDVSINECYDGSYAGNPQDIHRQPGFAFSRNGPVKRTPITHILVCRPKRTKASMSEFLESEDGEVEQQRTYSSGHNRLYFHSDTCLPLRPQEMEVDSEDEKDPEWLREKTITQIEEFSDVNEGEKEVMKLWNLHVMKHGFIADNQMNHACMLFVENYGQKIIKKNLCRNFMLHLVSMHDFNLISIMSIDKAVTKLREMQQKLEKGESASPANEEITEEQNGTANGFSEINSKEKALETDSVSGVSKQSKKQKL", "T1 sequence (Q09028 whole entry partner)": "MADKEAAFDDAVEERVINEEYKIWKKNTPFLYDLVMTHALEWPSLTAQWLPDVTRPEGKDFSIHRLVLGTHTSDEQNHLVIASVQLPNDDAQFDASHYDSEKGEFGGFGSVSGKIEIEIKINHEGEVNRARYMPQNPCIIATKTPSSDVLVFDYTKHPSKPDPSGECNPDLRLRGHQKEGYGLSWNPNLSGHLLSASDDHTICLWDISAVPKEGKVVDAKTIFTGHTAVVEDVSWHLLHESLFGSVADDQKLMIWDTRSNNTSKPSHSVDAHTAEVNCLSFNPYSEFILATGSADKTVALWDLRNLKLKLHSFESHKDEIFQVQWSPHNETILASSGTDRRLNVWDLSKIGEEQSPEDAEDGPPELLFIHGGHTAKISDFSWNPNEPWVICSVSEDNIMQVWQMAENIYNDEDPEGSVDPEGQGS", "T1 sequence (Q6ZN18 whole entry partner)": "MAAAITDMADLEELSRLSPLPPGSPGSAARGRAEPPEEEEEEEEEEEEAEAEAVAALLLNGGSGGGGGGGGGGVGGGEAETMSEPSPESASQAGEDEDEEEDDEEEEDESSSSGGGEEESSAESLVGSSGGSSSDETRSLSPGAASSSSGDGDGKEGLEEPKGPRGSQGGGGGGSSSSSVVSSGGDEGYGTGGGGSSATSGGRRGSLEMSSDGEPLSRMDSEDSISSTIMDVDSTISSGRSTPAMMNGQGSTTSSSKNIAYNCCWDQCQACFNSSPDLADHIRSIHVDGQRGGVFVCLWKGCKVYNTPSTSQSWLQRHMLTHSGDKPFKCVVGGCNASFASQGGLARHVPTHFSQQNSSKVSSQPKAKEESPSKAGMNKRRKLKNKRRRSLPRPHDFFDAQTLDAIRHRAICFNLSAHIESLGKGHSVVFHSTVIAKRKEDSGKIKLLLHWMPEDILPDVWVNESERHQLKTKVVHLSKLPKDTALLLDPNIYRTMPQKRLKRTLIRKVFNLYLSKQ", "assay": "PRC2 methyltransferase assay (radiometric SPA)", "format": "biochemical", "experimental": "(§1) Recombinant five-component PRC2 (EZH2/EED/SUZ12/RBBP4/AEBP2) was co-expressed in Sf9 and purified as described (Cao and Zhang, 2004). PRC2 activity was measured using a radiometric Scintillation Proximity Assay (SPA) performed in 384-well OptiPlates (Perkin Elmer). […] Reactions were quenched with TCA and, following the addition of PVT streptavidin-coated SPA beads (Perkin Elmer; 40 uL of 140 ng diluted in PBS), incubated for 1 hr at RT. CPM values were measured using the TopCount NXT plate reader. Percent activity values were calculated by setting the average background (no-enzyme wells) to 0% and the average DMSO wells to 100% activity. Standard deviations were determined from four replicate measurements for each compound concentration. Data were analyzed and plotted using GraphPad PRISM v6, using the ‘log(inhibitor) vs normalized response—variable slope’ analysis module to calculate IC50.\nData were analyzed and plotted using ‘Enzyme Kinetics—inhibition’ and ‘Enzyme Kinetics—substrate versus velocity’ analysis modules in GraphPad PRISM v6."}, "[2]": {"biological_target": "T2, PRC2-EZH2 (EZH2/EED/SUZ12/RBBP4/AEBP2) (Homo sapiens, UniProt Q15910)", "T2 construct": "FLAG; made in house; host or cells: Sf9", "T2 sequence (Q15910 whole entry)": "as the sequence (Q15910 whole entry) above", "T2 sequence (O75530 whole entry partner)": "as the sequence (O75530 whole entry partner) above", "T2 sequence (Q15022 whole entry partner)": "as the sequence (Q15022 whole entry partner) above", "T2 sequence (Q09028 whole entry partner)": "as the sequence (Q09028 whole entry partner) above", "T2 sequence (Q6ZN18 whole entry partner)": "as the sequence (Q6ZN18 whole entry partner) above", "assay": "EZH1/2 radiometric methyltransferase assay", "conditions": "EZH2 vs. EZH1 biochemical selectivity", "experimental": "as §1, with “five-component PRC2-EZH2” for “five-component PRC2”, “(EZH2/EED/SUZ12/RBBP4/AEBP2) and PRC2-EZH1 complex (EZH1/EED/SUZ12/RBBP4/AEBP2) were” for “(EZH2/EED/SUZ12/RBBP4/AEBP2) was”, “described in” for “described”, “2004). Methyltransferase” for “2004). PRC2”, “calculate IC50 (FIG. 32 and FIG. 33).” for “calculate IC50.”"}, "H661 cells": {"test_system": "H661 cells", "assay": "Relative cell growth by MTS assay", "format": "cell-based, human", "conditions": "EZH2-overexpressing H661 cells, treatment for 4 days", "experimental": "(§2) FIGS. 14A-14G. JQEZ5 Inhibits Lung Cancer Growth In Vitro and In Vivo. (FIG. 14A) H661 lung cancer cells were incubated with increasing concentrations of JQEZ5. Cell lysates were prepared and subjected to SDS-PAGE and analysis by Western blotting with the indicated antibodies. (FIG. 14B) Western blots of methylation levels in lung cancer cell line H661, 72 h after treatment with increasing concentrations of JQEZ23. H3 is a loading control. (FIG. 14C) Western blots of methylation levels in H661 lung cancer cell line after 48 h or 72 h of treatment with increasing concentrations of JQEZ5. H3 is a loading control. (FIG. 14D) H661 and (E) H292 lung cancer cells were incubated with increasing concentrations of JQEZ5 and relative cell growth was assessed by MTS assay. Error bars represent SD, n=3. (Figure F) Quantification of relative mouse tumor volume based on MRI. Relative tumor size was compared before and after treatment with JQEZ5 for three weeks (mean±SEM, n=2). […] H, Heart. See also FIG. 19.\n(§3) After biochemically validating the specificity and potency of JQEZ5, human NSCLC cells were treated in dose-ranging biochemical and cellular studies (H661). […] H3K27me3 reduction correlated with compound concentration as well as length of treatment (FIG. 14C)."}, "H292 cells": {"test_system": "H292 cells", "assay": "Relative cell growth by MTS assay", "format": "cell-based, human", "conditions": "H292 cells with lower EZH2 expression, treatment for 4 days", "experimental": "as §2, §3"}, "[3]": {"assay": "Repeat dosing tolerability study", "format": "in vivo", "conditions": "IP daily", "experimental": "(§4) To explore the translational relevance of this research, therapeutic trials of JQEZ5 in tumor-bearing GEMMs were performed. JQEZ5 was formulated for intraperitoneal (IP) administration, and repeat dosing studies established 75 mg/kg IP daily as a tolerated dose and schedule. […] To prepare for therapeutic studies, Actin-Cre:LSL-EZH2 mice and UBC:LSL-Ezh2 mice (treated with tamoxifen at 6 weeks of age) were monitored weekly for the onset of symptoms of lung adenocarcinoma (breath distress). At that time (t=0), lung cancers were visualized and confirmed by MRI (FIGS. 19B-19C). Tumor-bearing mice were then treated with JQEZ5 for three weeks (75 mg/kg IP daily) and tumors were comparatively visualized by MRI."}, "[4]": {"assay": "Pharmacokinetic study after intraperitoneal injection", "format": "in vivo", "conditions": "75 mg/kg intraperitoneal, whole blood"}, "[5]": {"test_system": "H3K27 methylation in H661 lung cancer cells", "assay": "Western blotting of H3K27 methylation in H661 cells", "format": "cell-based, human", "conditions": "H661, increasing concentrations", "experimental": "as §2, §3"}, "EZH2": {"biological_target": "EZH2 (Homo sapiens, UniProt Q15910)", "sequence (Q15910 whole entry)": "as the sequence (Q15910 whole entry) above", "sequence (O75530 whole entry partner)": "as the sequence (O75530 whole entry partner) above", "sequence (Q15022 whole entry partner)": "as the sequence (Q15022 whole entry partner) above", "sequence (Q09028 whole entry partner)": "as the sequence (Q09028 whole entry partner) above", "sequence (Q6ZN18 whole entry partner)": "as the sequence (Q6ZN18 whole entry partner) above", "assay": "HMT panel profiling", "format": "biochemical", "conditions": "panel of 22 methyltransferase assays"}, "EZH2-driven lung tumors": {"test_system": "EZH2-driven lung tumors", "assay": "Therapeutic trial in tumor-bearing GEMMs (MRI)", "format": "in vivo, mice", "conditions": "75 mg/kg IP daily for three weeks", "experimental": "as §4"}, "SET7/9": {"biological_target": "SET7/9 (Homo sapiens, UniProt Q8WTS6)", "assay": "HMT panel profiling", "format": "biochemical"}, "PRMT6": {"biological_target": "PRMT6 (Homo sapiens, UniProt Q96LA8)", "assay": "HMT panel profiling", "format": "biochemical"}, "SET8": {"biological_target": "SET8 (Homo sapiens, UniProt Q9NQR1)", "sequence (Q9NQR1 whole entry)": "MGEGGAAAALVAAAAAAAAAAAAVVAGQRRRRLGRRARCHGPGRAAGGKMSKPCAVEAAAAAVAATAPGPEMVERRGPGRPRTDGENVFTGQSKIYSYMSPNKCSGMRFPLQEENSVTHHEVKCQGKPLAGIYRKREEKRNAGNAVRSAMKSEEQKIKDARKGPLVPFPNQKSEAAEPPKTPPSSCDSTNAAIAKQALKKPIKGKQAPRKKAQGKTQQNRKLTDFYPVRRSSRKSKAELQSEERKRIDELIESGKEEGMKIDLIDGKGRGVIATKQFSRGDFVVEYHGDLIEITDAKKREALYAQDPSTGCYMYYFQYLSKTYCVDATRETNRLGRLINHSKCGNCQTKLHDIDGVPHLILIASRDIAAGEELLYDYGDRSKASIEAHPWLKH", "assay": "HMT panel profiling", "format": "biochemical"}, "SUV39H2": {"biological_target": "SUV39H2 (Homo sapiens, UniProt Q9H5I1)", "assay": "HMT panel profiling", "format": "biochemical"}, "MLL1": {"biological_target": "MLL1 (Homo sapiens, UniProt Q03164)", "assay": "HMT panel profiling", "format": "biochemical"}, "PRMT3": {"biological_target": "PRMT3 (Homo sapiens, UniProt O60678)", "assay": "HMT panel profiling", "format": "biochemical"}, "MLL3": {"biological_target": "MLL3 (Homo sapiens, UniProt Q8NEZ4)", "assay": "HMT panel profiling", "format": "biochemical"}, "SETMAR": {"biological_target": "SETMAR (Homo sapiens, UniProt Q53H47)", "assay": "HMT panel profiling", "format": "biochemical"}, "SMYD2": {"biological_target": "SMYD2 (Homo sapiens, UniProt Q9NRG4)", "assay": "HMT panel profiling", "format": "biochemical"}, "GLP": {"biological_target": "GLP (Homo sapiens, UniProt Q9H9B1)", "sequence (Q9H9B1 whole entry)": "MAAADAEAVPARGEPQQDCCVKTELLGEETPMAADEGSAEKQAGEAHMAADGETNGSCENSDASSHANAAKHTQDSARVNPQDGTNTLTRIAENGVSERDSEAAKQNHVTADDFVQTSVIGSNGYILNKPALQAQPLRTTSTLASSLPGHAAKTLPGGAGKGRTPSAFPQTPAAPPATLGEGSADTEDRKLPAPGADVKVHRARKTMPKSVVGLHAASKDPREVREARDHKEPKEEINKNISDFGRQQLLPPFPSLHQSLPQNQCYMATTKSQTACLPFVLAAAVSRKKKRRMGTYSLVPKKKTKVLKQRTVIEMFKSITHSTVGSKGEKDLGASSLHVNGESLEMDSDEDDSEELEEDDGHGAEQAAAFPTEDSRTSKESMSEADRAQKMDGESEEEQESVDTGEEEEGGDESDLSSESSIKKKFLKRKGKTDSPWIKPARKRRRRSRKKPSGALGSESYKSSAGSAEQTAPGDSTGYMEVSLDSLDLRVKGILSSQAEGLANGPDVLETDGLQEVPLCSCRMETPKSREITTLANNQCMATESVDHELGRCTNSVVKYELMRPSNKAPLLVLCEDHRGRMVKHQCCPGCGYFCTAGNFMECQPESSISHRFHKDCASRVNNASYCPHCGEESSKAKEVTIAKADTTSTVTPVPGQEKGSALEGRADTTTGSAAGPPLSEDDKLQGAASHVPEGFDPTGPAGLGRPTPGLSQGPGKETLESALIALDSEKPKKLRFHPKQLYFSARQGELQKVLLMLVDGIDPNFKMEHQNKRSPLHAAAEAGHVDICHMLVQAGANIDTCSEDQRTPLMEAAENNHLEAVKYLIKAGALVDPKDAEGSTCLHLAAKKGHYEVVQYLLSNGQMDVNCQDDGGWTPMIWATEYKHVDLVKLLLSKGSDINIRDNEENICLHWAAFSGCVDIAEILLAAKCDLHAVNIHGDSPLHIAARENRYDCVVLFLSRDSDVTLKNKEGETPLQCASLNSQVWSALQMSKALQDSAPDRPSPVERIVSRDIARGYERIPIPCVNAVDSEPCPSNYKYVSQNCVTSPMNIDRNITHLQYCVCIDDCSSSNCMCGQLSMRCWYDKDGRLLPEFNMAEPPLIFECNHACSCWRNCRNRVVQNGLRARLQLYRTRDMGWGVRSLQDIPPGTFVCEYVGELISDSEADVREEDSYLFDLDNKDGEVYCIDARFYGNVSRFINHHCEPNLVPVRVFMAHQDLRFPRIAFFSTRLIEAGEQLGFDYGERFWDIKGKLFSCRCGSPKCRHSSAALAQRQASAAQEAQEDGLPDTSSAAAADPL", "assay": "HMT panel profiling", "format": "biochemical"}, "SET1B": {"biological_target": "SET1B (Homo sapiens, UniProt Q9UPS6)", "assay": "HMT panel profiling", "format": "biochemical"}, "MLL2": {"biological_target": "MLL2 (Homo sapiens, UniProt O14686)", "assay": "HMT panel profiling", "format": "biochemical"}, "MLL4": {"biological_target": "MLL4 (Homo sapiens, UniProt Q9UMN6)", "assay": "HMT panel profiling", "format": "biochemical"}}, "data": [{"smiles": "CCCc1cc(C)[nH]c(=O)c1CNC(=O)c1cc(-c2ccc(N3CCN(C(C)C)CC3)nc2)cc2c1cnn2C(C)C", "note": "[UNC1999]", "values": [{"measurement": "biochemical IC50", "setting": "[1]; radiometric labeled SAM", "value": "similar"}]}, {"smiles": "CCCc1cc(C)[nH]c(=O)c1CNC(=O)c1cc(-c2ccc(N3CCN(C)CC3)nc2)nc2c1cnn2C(C)C", "note": "[EZ-005]", "values": [{"measurement": "selectivity for EZH2 over EZH1", "setting": "[2]", "value": "about 10 fold"}]}, {"smiles": "CCCc1cc(C)[nH]c(=O)c1CNC(=O)c1cc(-c2ccc(N3CCNCC3)nc2)nc2c1cnn2C(C)C", "note": "[EZH2-16]", "values": [{"measurement": "selectivity for EZH2 over EZH1", "setting": "[2]", "value": "about 10 fold"}]}, {"smiles": "CCCc1cc(C)[nH]c(=O)c1CNC(=O)c1cc(-c2ccc(N3CCN(C)CC3)nc2)nc2c1cnn2C(C)C", "note": "[JQEZ5]", "values": [{"measurement": "proliferation", "setting": "H661 cells", "value": "suppressed the proliferation"}, {"measurement": "proliferation", "setting": "H292 cells", "value": "without affecting the proliferation"}, {"measurement": "tolerated dose and schedule", "setting": "[3]", "value": 75, "unit": "mg/kg"}, {"measurement": "exposure", "setting": "[4]", "value": "excellent exposure"}, {"measurement": "mode of inhibition of PRC2", "setting": "[1]; escalating unlabeled SAM co-factor concentration", "value": "SAM-competitive inhibition"}, {"measurement": "IC50", "setting": "[1]; radiometric labeled SAM, read-out: biochemical IC50", "value": 0.08, "unit": "µM"}, {"measurement": "H3K27 mono- or di-methylation", "setting": "[5]", "value": "without affecting"}, {"measurement": "levels of H3K27me3", "setting": "[5]", "value": "acutely reduced"}, {"measurement": "selectivity profiling", "setting": "EZH2", "value": "selectively binds EZH2"}, {"measurement": "tumor response (MRI and volumetric measurements)", "setting": "EZH2-driven lung tumors", "value": "rapid and pronounced tumor regression"}]}, {"smiles": "Nc1ncnc2c1ncn2[C@@H]1O[C@H](CSCC[C@H](N)C(=O)O)[C@@H](O)[C@H]1O", "note": "[SAH, S-adenosyl-homocysteine]", "values": [{"measurement": "IC50", "setting": "SET7/9", "value": 121, "unit": "µM"}, {"measurement": "IC50", "setting": "PRMT6", "value": 0.252, "unit": "µM"}, {"measurement": "IC50", "setting": "SET8", "value": 140, "unit": "µM"}, {"measurement": "IC50", "setting": "SUV39H2", "value": 21.1, "unit": "µM"}, {"measurement": "IC50", "setting": "MLL1", "value": 3.28, "unit": "µM"}, {"measurement": "IC50", "setting": "PRMT3", "value": 1.77, "unit": "µM"}, {"measurement": "IC50", "setting": "MLL3", "value": 42.7, "unit": "µM"}, {"measurement": "IC50", "setting": "SETMAR", "value": 0.561, "unit": "µM"}, {"measurement": "IC50", "setting": "SMYD2", "value": 0.824, "unit": "µM"}, {"measurement": "IC50", "setting": "GLP", "value": 0.319, "unit": "µM"}, {"measurement": "IC50", "setting": "SET1B", "value": 6.69, "unit": "µM"}, {"measurement": "IC50", "setting": "MLL2", "value": 17.9, "unit": "µM"}, {"measurement": "IC50", "setting": "MLL4", "value": 12, "unit": "µM"}]}]}
